Values of other authors as cited in PMC6476928 (Frontiers in Pharmacology, 2019).

How the values were obtained:
kv4.1 = conditions: X. laevis oocytes; cited from earlier work
Excerpt: Supplement Data_Sheet_1.docx, table 1: Supplementary Table 1.Activity of spider toxins on Kv2 and Kv4 channel subtypes Activities of spider toxins against different subtypes of Kv2 and Kv4 potassium channels are reported as IC50 (nanomolar) or as percentage of current inhibition at a single dose (nanomolar). Affinity (IC50) measurements | column: kv4.1

Kv4.2 = biological target: T1, Kv4.2 (Homo sapiens, UniProt Q9NZV8); conditions: X. laevis oocytes, cited from earlier work
T1 sequence (Q9NZV8 1-630): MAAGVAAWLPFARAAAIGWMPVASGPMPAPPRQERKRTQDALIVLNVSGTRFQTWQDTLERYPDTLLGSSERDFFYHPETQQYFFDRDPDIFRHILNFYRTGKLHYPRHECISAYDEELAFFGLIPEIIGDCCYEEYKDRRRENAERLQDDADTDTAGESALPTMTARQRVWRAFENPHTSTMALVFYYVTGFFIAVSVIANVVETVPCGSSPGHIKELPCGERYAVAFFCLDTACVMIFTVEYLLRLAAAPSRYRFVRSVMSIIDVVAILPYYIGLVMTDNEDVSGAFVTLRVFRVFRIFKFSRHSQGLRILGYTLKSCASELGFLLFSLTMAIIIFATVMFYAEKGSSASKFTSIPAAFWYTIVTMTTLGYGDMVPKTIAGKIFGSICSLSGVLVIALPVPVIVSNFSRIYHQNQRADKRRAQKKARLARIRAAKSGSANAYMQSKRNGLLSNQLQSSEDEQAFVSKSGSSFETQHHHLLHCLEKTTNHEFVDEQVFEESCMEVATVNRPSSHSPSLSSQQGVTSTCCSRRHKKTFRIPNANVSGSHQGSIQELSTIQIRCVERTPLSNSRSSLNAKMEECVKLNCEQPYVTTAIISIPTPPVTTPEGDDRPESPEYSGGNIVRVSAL
T1 sequence (Q9NS61 1-270 partner): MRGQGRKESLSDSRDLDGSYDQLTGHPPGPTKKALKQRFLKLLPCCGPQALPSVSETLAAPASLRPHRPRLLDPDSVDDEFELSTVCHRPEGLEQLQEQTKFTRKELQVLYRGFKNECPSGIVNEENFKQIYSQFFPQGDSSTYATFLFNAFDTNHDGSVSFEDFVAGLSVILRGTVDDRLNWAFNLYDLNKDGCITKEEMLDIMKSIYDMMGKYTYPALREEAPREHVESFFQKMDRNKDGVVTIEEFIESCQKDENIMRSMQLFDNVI
Excerpt: (§1) Supplement Data_Sheet_1.docx, table 1: Supplementary Table 1.Activity of spider toxins on Kv2 and Kv4 channel subtypes Activities of spider toxins against different subtypes of Kv2 and Kv4 potassium channels are reported as IC50 (nanomolar) or as percentage of current inhibition at a single dose (nanomolar). Affinity (IC50) measurements | column: kv4.2 || Animal toxins target ion channels, and are thus valuable resources with potential therapeutic applications. The Kv4 subfamily from scorpion ([Maffie et al., 2013]; [Xie et al., 2014]) and spider venom ([Escoubas et al., 2002]; [Ebbinghaus et al., 2004]; [Yuan et al., 2007], [2012]; [DeSimone et al., 2009]) has a rich toxin pharmacology. HaTx, originally isolated from venom of the Chilean rose tarantula (Grammostola spatulata), inhibits Kv4.2 channels effectively, with similar affinity for Kv2.1 ([Swartz and MacKinnon, 1995]; [Swartz, 2007]). Other Kv4 channel inhibitors, Stromatoxin (ScTx1) fr ...

kv2.1 = conditions: X. laevis oocytes, Hill relation nH = 1; cited from earlier work
Excerpt: as §1, with “kv2.1” for “kv4.2”

Substance	activity on kv4.1 (kv4.1)	IC50 (Kv4.2; Hill relation nH = 1)	IC50 (kv2.1)	inhibition (Kv4.2; 500nM, read-out: percentage of current inhibition kv4.2)
Stromatoxin [ScTx1, reference compound]	No O	1.2 nM		
hanatoxin [HaTx1, reference compound]			42 nM	70%
